Values after ≈ are worked out from the molar mass of the structure shown.
What was measured:
[1] = tested on: S. aureus clinical strain 051N (MRSA); design: method as in earlier work; conditions: clinical isolate 051N (MRSA), nasal swab; cited from earlier work
[2] = tested on: S. aureus clinical strain 004N (MRSA); design: method as in earlier work; conditions: clinical isolate 004N (MRSA), nasal swab; cited from earlier work
[3] = tested on: S. aureus clinical strain 030N; design: method as in earlier work; conditions: clinical isolate 030N, nasal swab; cited from earlier work
[4] = tested on: S. aureus clinical strain 031S; design: method as in earlier work; conditions: clinical isolate 031S, skin; cited from earlier work
[5] = tested on: S. aureus clinical strain 015N (MRSA); design: method as in earlier work; conditions: clinical isolate 015N (MRSA), nasal swab; cited from earlier work
[6] = tested on: S. aureus clinical strain 005S; design: method as in earlier work; conditions: clinical isolate 005S, skin; cited from earlier work
S. aureus ATCC 25923 = test: microbe, parasite or virus in culture
From the text: (§1) Clinical S. aureus strains were collected from patients with atopic dermatitis during their visits to the Outpatient Clinic and hospitalization in the Department of Dermatology, Venereology and Allergology at Medical University of Gdańsk (following the approval from the ethics committee, Approval Number NKBBN/242–477/2014). Reference strains of S. aureus ATCC 25923, S. aureus ATCC 33591, S. aureus ATCC 9144, and S. aureus ATCC 12598 were obtained from the American Type Culture Collection. All the strains were stored at − 80 °C in Roti®-Store cryo vials (Carl Roth GmbH, Karlsruhe, Germany) and before the tests were transferred into fresh Mueller–Hinton Medium (BioMaxima, Lublin, Poland) and incubated for 24 h at 37 °C. Subsequently, each bacterial inoculum was seeded on Mueller–Hinton agar plates (BioMaxima) and incubated again for 24 h. The cultures prepared in this way were used in further antimicrobial assays. Minimum inhibitory concentrations (MICs) were determined according to the Clinical and Laboratory Standards Institute recommendations. […] The experiments were conducted on 96-well microtiter plates, with a final volume of 100 μL. Additionally, in the case of daptomycin, the medium was supplemented with Ca^2+ (50 mg/L). Cell densities were adjusted spectrophotometrically (Multiskan™ GO Microplate Spectrophotometer, Thermo Scientific) at 600 nm. The MICs were taken as the lowest drug concentration at which a visible growth of the microorganisms was inhibited. Minimum biofilm eliminating concentrations (MBECs) were determined on 96-well flat-bottomed microtiter polystyrene plates with resazurin (7-hydroxy-3H-phenoxazin-3-one 10-oxide sodium salt) as a cell viability reagent. To do this, the plates were filled with 100 μL of the initial inoculums of bacteria (0.5 × 10^7 CFU/mL) in the Mueller–Hinton broth and incubated for 24 h at 37 °C. […] After 24 h of incubation, 20 μL of resazurin (4 mg/mL) was added to each well and the MBEC values were read. Minimum biofilm inhibitory concentrations (MBICs) were also determined on 96-well flat-bottomed microtiter polystyrene plates as described previously. To do this, 50 μL of the compounds in the concentration range, diluted MHB, were prepared. Subsequently, the 50 μL of the staphylococcal inoculums were added to reach the same density of bacteria as that in the MBEC assay. After 24 h of incubation at 37 °C, the wells were rinsed three times with PBS and the fresh medium (100 μL) with resazurin (0.6 mg/mL) was added. Then, after 1 h of incubation, MBICs were read. […] All experiments were conducted in triplicate.
(§2) Formation of the biofilm inside the PDMS flow chambers was performed using three peristaltic pumps working simultaneously (LP-pump, Kamush, Lipopharm, Poland) and sterile Tygon® 3350 silicone hoses (2.4 × 0.8 × 0.8 mm) with a length of 30 and 50 cm for inlet and outlet, respectively. Bacterial suspensions were prepared (0.5 × 10^7 CFU/mL) in sterile 50-mL test tubes, which were placed in a heating block at 37 °C. Before experiments, all channels were assessed for tightness and sterilized using a 70% 2-propanol solution (10 min, flow rate 1 mL/min) and rinsed with sterile PBS solution (10 min, flow 0.1 mL/min). The formation of biofilm inside the channels was divided into three stages: (1) adhesion—at this stage S. aureus suspensions were passed through the channels for 4 h at a flow rate of 0.1 mL/min; (2) rinsing—the previously used hoses were replaced with new sterile ones, and the channels were rinsed with sterile PBS solution for 10 min at a flow rate of 0.1 mL/min; (3) biofilm growth—after flushing the channels, the silicone hoses were placed in tubes with MHB medium, which was passed through the channels for 24 h at a flow rate of 0.1 mL/min. All experiments included growth and sterility controls.
(§3) This assay was conducted also on the S. aureus ATCC 25923 and S. aureus 33,591 (MRSA) strains.

[7] = tested on: S. aureus ATCC 33591 (MRSA); test: microbe, parasite or virus in culture
From the text: as §1, §2, §3

[8] = tested on: S. aureus clinical strain 043SC (MRSA); design: method as in earlier work; conditions: clinical isolate 043SC (MRSA), skin of patient with furuncle folliculitis; cited from earlier work
[9] = tested on: S. aureus clinical strain 009S; design: method as in earlier work; conditions: clinical isolate 009S, skin; cited from earlier work
[10] = tested on: S. aureus clinical strain 060S; design: method as in earlier work; conditions: clinical isolate 060S, skin; cited from earlier work
[11] = S. aureus 25923 biofilm treated under flow with Retro-Omiganan (half MBEC) for 24 h
[12] = S. aureus 25923 biofilm treated under flow with Retro-Omiganan (half MBEC) for 48 h
[13] = S. aureus 25923 biofilm treated under flow with Retro-Omiganan (half MBEC) for 72 h
[14] = Staphylococcus aureus, ATCC25923, 0 h
[15] = Staphylococcus aureus, ATCC25923, 24 h
[16] = Staphylococcus aureus, ATCC25923, 48 h
[17] = Staphylococcus aureus, ATCC25923, 72 h
[18] = S. aureus ATCC 33591 (MRSA) biofilm treated under flow with Retro-Omiganan (half MBEC) for 24 h
[19] = S. aureus ATCC 33591 (MRSA) biofilm treated under flow with Retro-Omiganan (half MBEC) for 48 h
[20] = S. aureus ATCC 33591 (MRSA) biofilm treated under flow with Retro-Omiganan (half MBEC) for 72 h
[21] = Staphylococcus aureus, ATCC25923, 0 h, S. aureus 25923, time 0 h (baseline, before peptide exposure)
[22] = Staphylococcus aureus, ATCC25923, 24 h, S. aureus 25923 biofilm treated under flow with Omiganan (half MBEC) for 24 h
[23] = Staphylococcus aureus, ATCC25923, 24 h, S. aureus 25923 biofilm treated under flow with Retro-Omiganan (half MBEC) for 24 h
[24] = Staphylococcus aureus, ATCC25923, 48 h, S. aureus 25923 biofilm treated under flow with Omiganan (half MBEC) for 48 h
[25] = Staphylococcus aureus, ATCC25923, 48 h, S. aureus 25923 biofilm treated under flow with Retro-Omiganan (half MBEC) for 48 h
[26] = Staphylococcus aureus, ATCC25923, 72 h, S. aureus 25923 biofilm treated under flow with Omiganan (half MBEC) for 72 h
[27] = Staphylococcus aureus, ATCC25923, 72 h, S. aureus 25923 biofilm treated under flow with Retro-Omiganan (half MBEC) for 72 h
[28] = Staphylococcus aureus, ATCC33591|MRSA, 0 h, S. aureus ATCC 33591 (MRSA), time 0 h (baseline, before peptide exposure)
[29] = Staphylococcus aureus, ATCC33591|MRSA, 24 h, S. aureus ATCC 33591 (MRSA) biofilm treated under flow with Omiganan (half MBEC) for 24 h
[30] = Staphylococcus aureus, ATCC33591|MRSA, 24 h, S. aureus ATCC 33591 (MRSA) biofilm treated under flow with Retro-Omiganan (half MBEC) for 24 h
[31] = Staphylococcus aureus, ATCC33591|MRSA, 48 h, S. aureus ATCC 33591 (MRSA) biofilm treated under flow with Omiganan (half MBEC) for 48 h
[32] = Staphylococcus aureus, ATCC33591|MRSA, 48 h, S. aureus ATCC 33591 (MRSA) biofilm treated under flow with Retro-Omiganan (half MBEC) for 48 h
[33] = Staphylococcus aureus, ATCC33591|MRSA, 72 h, S. aureus ATCC 33591 (MRSA) biofilm treated under flow with Omiganan (half MBEC) for 72 h
[34] = Staphylococcus aureus, ATCC33591|MRSA, 72 h, S. aureus ATCC 33591 (MRSA) biofilm treated under flow with Retro-Omiganan (half MBEC) for 72 h

Structure (SMILES)	Antimicrobial susceptibility (MIC) [1] [mg/L]	Antimicrobial susceptibility (MIC) [2] [mg/L]	Antimicrobial susceptibility (MIC) [3] [mg/L]	Antimicrobial susceptibility (MIC) [4] [mg/L]	Antimicrobial susceptibility (MIC) [5] [mg/L]	Antimicrobial susceptibility (MIC) [6] [mg/L]	MIC (S. aureus ATCC 25923; [11]) [mg/L]	MIC (S. aureus ATCC 25923; [12]) [mg/L]	MIC (S. aureus ATCC 25923; [13]) [mg/L]	MIC (S. aureus ATCC 25923; [14]) [mg/L]	MIC (S. aureus ATCC 25923; [15]) [mg/L]	MIC (S. aureus ATCC 25923; [16]) [mg/L]	MIC (S. aureus ATCC 25923; [17]) [mg/L]	MIC [7, 18] [mg/L]	MIC [7, 19] [mg/L]	MIC [7, 20] [mg/L]	MIC ([7]; Staphylococcus aureus, 0 h) [mg/L]	Antimicrobial susceptibility (MIC) [8] [mg/L]	Antimicrobial susceptibility (MIC) [9] [mg/L]	Antimicrobial susceptibility (MIC) [10] [mg/L]	further results
C/C(=C\C(=O)OCCCCCCCCC(=O)O)C[C@@H]1OC[C@H](C[C@@H]2O[C@H]2[C@@H](C)[C@H](C)O)[C@@H](O)[C@H]1O [Mupirocin]	0.25	0.125	0.25	32	0.25	> 512	≤ 0.25	≤ 0.25	≤ 0.25	≤ 0.25	≤ 0.25	≤ 0.25	≤ 0.25	≤ 0.25	≤ 0.25	≤ 0.25	≤ 0.25	0.5	> 512	> 512	MIC ([7]; Staphylococcus aureus, 24 h): ≤ 0.25 mg/L; MIC ([7]; Staphylococcus aureus, 48 h): ≤ 0.25 mg/L; MIC ([7]; Staphylococcus aureus, 72 h): ≤ 0.25 mg/L
CN(C)[C@@H]1C(O)=C(C(N)=O)C(=O)[C@@]2(O)C(O)=C3C(=O)c4c(O)cccc4[C@@](C)(O)[C@H]3C[C@@H]12 [Tetracycline]	0.25	0.5	0.5	0.25	0.5	0.5	–	–	–	–	–	–	–	–	–	–	–	32	1	0.125	MIC (S. aureus ATCC 25923; [21]): ≤ 0.25 mg/L; MIC (S. aureus ATCC 25923; [22]): ≤ 0.25 mg/L; MIC (S. aureus ATCC 25923; [23]): ≤ 0.25 mg/L; MIC (S. aureus ATCC 25923; [24]): ≤ 0.25 mg/L; MIC (S. aureus ATCC 25923; [25]): ≤ 0.25 mg/L; MIC (S. aureus ATCC 25923; [26]): ≤ 0.25 mg/L; MIC (S. aureus ATCC 25923; [27]): ≤ 0.25 mg/L; MIC [7, 28]: 64 mg/L (≈ 144 µM); MIC [7, 29]: 64 mg/L (≈ 144 µM); MIC [7, 30]: 64 mg/L (≈ 144 µM); MIC [7, 31]: 64 mg/L (≈ 144 µM); MIC [7, 32]: 64 mg/L (≈ 144 µM); MIC [7, 33]: 64 mg/L (≈ 144 µM); MIC [7, 34]: 64 mg/L (≈ 144 µM)
CN[C@H](CC(C)C)C(=O)N[C@H]1C(=O)N[C@@H](CC(N)=O)C(=O)N[C@H]2C(=O)N[C@H]3C(=O)N[C@H](C(=O)N[C@H](C(=O)O)c4cc(O)cc(O)c4-c4cc3ccc4O)[C@H](O)c3ccc(c(Cl)c3)Oc3cc2cc(c3O[C@@H]2O[C@H](CO)[C@@H](O)[C@H](O)[C@H]2O[C@H]2C[C@](C)(N)[C@H](O)[C@H](C)O2)Oc2ccc(cc2Cl)[C@H]1O [Vancomycin]	0.5	0.5	2	0.25	1	0.125	–	–	–	–	–	–	–	–	–	–	–	0.5	0.25	0.5	MIC (S. aureus ATCC 25923; [21]): 1 mg/L (≈ 0.69 µM); MIC (S. aureus ATCC 25923; [22]): 1 mg/L (≈ 0.69 µM); MIC (S. aureus ATCC 25923; [23]): 1 mg/L (≈ 0.69 µM); MIC (S. aureus ATCC 25923; [24]): 1 mg/L (≈ 0.69 µM); MIC (S. aureus ATCC 25923; [25]): 1 mg/L (≈ 0.69 µM); MIC (S. aureus ATCC 25923; [26]): 1 mg/L (≈ 0.69 µM); MIC (S. aureus ATCC 25923; [27]): 1 mg/L (≈ 0.69 µM); MIC [7, 28]: 1 mg/L (≈ 0.69 µM); MIC [7, 29]: 1 mg/L (≈ 0.69 µM); MIC [7, 30]: 1 mg/L (≈ 0.69 µM); MIC [7, 31]: 1 mg/L (≈ 0.69 µM); MIC [7, 32]: 1 mg/L (≈ 0.69 µM); MIC [7, 33]: 1 mg/L (≈ 0.69 µM); MIC [7, 34]: 1 mg/L (≈ 0.69 µM)
CC(=O)O[C@H]1C[C@@]2(C)[C@@H](C[C@@H](O)[C@H]3[C@@]4(C)CC[C@@H](O)[C@@H](C)[C@@H]4CC[C@@]32C)/C1=C(\CCC=C(C)C)C(=O)O [Fusidic Acid]	0.125	0.0625	0.25	0.25	0.125	0.0625	≤ 0.25	≤ 0.25	≤ 0.25	≤ 0.25	≤ 0.25	≤ 0.25	≤ 0.25	≤ 0.25	≤ 0.25	≤ 0.25	≤ 0.25	0.125	2	0.125	MIC ([7]; Staphylococcus aureus, 24 h): ≤ 0.25 mg/L; MIC ([7]; Staphylococcus aureus, 48 h): ≤ 0.25 mg/L; MIC ([7]; Staphylococcus aureus, 72 h): ≤ 0.25 mg/L
